Experimental data taken from patent US11365183B2, “Eicosanoid derivatives” (MAX-DELBRUECK-CENTRUM FUER MOLEKULARE MEDIZIN, priority 2009, dated 2022).

Assays:
[1] = tested on: neonatal rat cardiomyocytes (NRCMs); experiment: Response of NRCMs to increased extracellular Ca2+ and ß-adrenergic stimulation; type: cell-based; settings: 30 nM added 5 min before
Description: Compound C11 was synthesized as described above (example 11). NRCMs were isolated and cultured as in Example 19. The basal Ca^2+-concentration of the medium was 1.2 mM. Increased extracellular Ca^2+-concentrations (2.2, 5.2 and 8.2 mM) were adjusted by adding appropriate amounts of a 1 M CaCl2 solution to the cultures. Isoproterenol (from Sigma-Aldrich) was used as ß-adrenoreceptor agonist and added to the cultures to give final concentrations of 0.1, 1 or 10 μM. C11 was used at a final concentration of 30 nM and added to the cultures 5 min before changing the Ca^2+-concentration or adding isoproterenol. Controls were performed in the absence of C11.

[2] = tested on: neonatal rat cardiomyocytes (NRCMs); experiment: Chronotropic effect on spontaneous beating rate of cultured neonatal rat cardiomyocytes (identification of agonists); type: cell-based; settings: 30 nM, incubation time 5 min
Source text: This negative chronotropic effect reflects the capacity of the analogs to interact with and to activate a G-protein coupled receptor or other primary cellular targets that reduce the contractility of cardiomyocytes under basal and stress-induced conditions.
The compounds included EPA and 17,18-EETeTr (compounds 01 and 02; purchased from Cayman Chemical) as well as all but one (compound 16) of the analogs synthesized as described in examples 1-24. The R,S— and S,R-enantiomers of 17,18-EETeTr (compounds 03 and 04) were prepared resolving the racemic mixture (compound 02) by means of chiral-phase HPLC as described previously (Barbosa-Sicard E, Markovic M, Honeck H, Christ B, Muller D N, Schunck W H. Biochem Biophys Res Commun. 2005 Apr. 22; 329(4):1275-81). Before use, the compounds to be tested were prepared as 1000-fold stock solutions in ethanol.
Isolation and cultivation of NRCMs were performed as described previously (Wallukat, G; Wollenberger, A. Biomed Biochim Acta. 1987; 78:634-639; Wallukat G, Homuth V, Fischer T, Lindschau C, Horstkamp B, Jupner A, Baur E, Nissen E, Vetter K, Neichel D, Dudenhausen J W, Haller H, Luft F C. J Clin Invest. 1999; 103: 945-952). Briefly, neonatal Wistar rats (1-2 days old) were killed in conformity to the recommendations of the Community of Health Service of the City of Berlin and the cardiomyocytes were dissociated from the minced ventricles with a 0.2% solution of crude trypsin. The isolated cells were then cultured as monolayers on the bottom (12.5 cm^2) of Falcon flasks in 2.5 ml of Halle S M 20-I medium equilibrated with humidified air. The medium contained 10% heat-inactivated FCS and 2 μmol/l fluoro-deoxyuridine (Serva, Heidelberg, Germany), the latter to prevent proliferation of non-muscle cells. The NRCMs (2.4×10^6 cells/flask) were cultured at 37° C. in an incubator. After 5 to 7 days, the NRCMs formed spontaneously beating cell clusters. […] On the day of the experiment, the culture medium was replaced by 2.0 ml fresh serum-containing medium. Two hours later, the beating rates were monitored at 37° C. using an inverted microscope equipped with a heating stage. To determine the basal rate, 6 to 8 individual clusters were selected and the number of contractions was counted for 15 sec. After that, the compound to be tested was added to the culture and the beating rate of the same clusters was monitored 5 min later again. Based on the difference between the basal and compound-induced beating rate of the individual clusters, the chronotropic effects (Δ beats/min) were calculated and are given as mean±SE values. N refers to the number of clusters monitored which originated, in general, from at least three independent NRCM cultures.
This effect was fully expressed using an EPA concentration of 3.3 μM and an incubation time of 30 min. In contrast, 17,18-EETeTr (C02) produced the same effect almost immediately and already in the low nanomolar range (EC50 of 1-2 nM, data not shown). To compare the activity of 17,18-EETeTr with that of its synthetic analogs, all these compounds were tested at a final concentration of 30 nM and using an incubation time of 5 min.

- melting point: 83.1 to 83.3 °C
Structure (SMILES): CCNC(=O)NCCCC/C=C\CCCCCCCCCC(=O)O [Compound C11, 16-(3-Ethylureido)hexadec-11(Z)-enoic Acid]
- beating rate of NRCMs at basal and increased extracellular Ca2+ ([1]; 1.2 mM Ca2+ and up to 8.2 mM): significantly reduced
- response of NRCMs to increasing concentrations of isoproterenol ([1]; isoproterenol 0.1, 1 or 10 μM): reduced the response
- chronotropic effect (Δ beats/min), mean±SE ([2]; NRCM clusters): −27.0±1.2 beats/min
- agonistic / chronotropic effect on NRCMs, in words ([2]; compound alone): Agonists
